Measurements: US20240067665A1, “SMALL MOLECULES FOR BORON NEUTRON CAPTURE THERAPY” (Aviko Radiopharmaceuticals, LLC, priority 2022, published 2024)

How the values were obtained:
Conditions in all cases: 100 uM
B16F10 = test: Cell uptake assay, B16F10 cells; format: cell-based, mouse
Protocol: (§1) • 1.1.1 15 mL of cell culture medium was placed into a T225 flask. • 1.1.2 The flask was placed in a humidified 37° C., 5% CO2 incubator for 15 minutes to allow medium to equilibrate to the proper pH and temperature. • 1.1.3 The vial was removed from liquid nitrogen and thawed rapidly by placing at 37° C. in a water bath with gentle agitation for 1-2 minutes and then decontaminated by wiping with 70% ethanol before opening in a Class II biological safety cabinet. • 1.1.4 The vial contents were transferred dropwise into 10 mL of cell culture medium in a sterile 15 mL conical tube. • 1.1.5 The cells were centrifuged at 1,300 rpm for 5 minutes. • 1.1.6 The supernatant was aspirated and re-suspended the cells and transferred the cells into T225 flask containing cell culture medium.
(§2) • 1.2.1 Culture medium were renewed every 2-3 days. • 1.2.2 Keep the flask in a humidified 37° C., 5% CO2 incubator
(§3) • Cells were harvested and diluted in culture medium to the designated concentration. Then the cells were cultured in T25 flasks, one T25 flask for one sample. 2.2 Formulation of test compounds • 2.2.1 L-Boronophenylalanine (L-BPA, 4-boron-L-phenylalanine, Purity: 95%, Chemical formula: C9H12BNO4, MW: 209.01, CAS: 76410-58-7) and fructose were dissolved in PBS at a molar ratio of 1:5, and then a 1.27 M ratio of 1 N NaOH is added. The mixture was stirred until L-BPA is completely dissolved, and the pH value was titrated to 7.2-7.4 with 1 N HC1. • 2.2.2 For test compounds other than BPA, stock solutions were prepared of each compound in DMSO or fructose formulation at a concentration of 20 mM (such that final % DMSO in the cellular assay medium=0.5%) 2.3 Compound treatment • 2.3.1 The cells were seeded overnight (12-18 hours) to allow the cells to adhere well. • 2.3.2 The stock solution of each compound was added to each T25 flask such that the final concentration for each compound is 100 uM (0.1 mM). • 2.3.3 The flasks were placed in a 37° C., 5% CO2 incubator for 1 hour, 4 hours and 24 hours. • 2.3.4 After treatment for 1 hour, 4 hour, and 24 hours, the cells were collected by using 0.25% Trypsin with 0.53 mM EDTA. • 2.3.5 Centrifuged at 1,300 rpm for 5 min to collect cell pellets.

NIH-3T3 = test: Cell uptake assay, NIH-3T3 cells; format: cell-based, mouse
Protocol: as §1, §2, §3

U87-MG (glioblastoma) = test: Cell uptake assay, U87-MG cells; format: cell-based, human
Protocol: as §1, §2, §3

SAS (head & neck cancer) = test: Cell uptake assay, SAS cells; format: cell-based, human
Protocol: as §1, §2, §3

SMILES | Cell uptake, Mean, B16F10 (B16F10; 1 hour) [ng/10^6 cell] | Cell uptake, Mean, B16F10 (B16F10; 4 hours) [ng/10^6 cell] | Cell uptake, Mean, B16F10 (B16F10; 24 hours) [ng/10^6 cell] | Cell uptake, Mean, NIH-3T3 (NIH-3T3; 1 hour) [ng/10^6 cell] | Cell uptake, Mean, NIH-3T3 (NIH-3T3; 4 hours) [ng/10^6 cell] | Cell uptake, Mean, NIH-3T3 (NIH-3T3; 24 hours) [ng/10^6 cell] | Cell uptake, Mean, U87-MG (U87-MG (glioblastoma); 1 hour) [ng/10^6 cell] | Cell uptake, Mean, U87-MG (U87-MG (glioblastoma); 4 hours) [ng/10^6 cell] | Cell uptake, Mean, U87-MG (U87-MG (glioblastoma); 24 hours) [ng/10^6 cell] | Cell uptake, Mean, SAS (SAS (head & neck cancer); 1 hour) [ng/10^6 cell] | Cell uptake, Mean, SAS (SAS (head & neck cancer); 4 hours) [ng/10^6 cell] | Cell uptake, Mean, SAS (SAS (head & neck cancer); 24 hours) [ng/10^6 cell]
N[C@@H](Cc1cc(F)cc(OCB(O)O)c1)C(=O)O [compound 13, (2S)-2-amino-3-[3-[(dihydroxyboranyl)methoxy]-5-fluorophenyl]propanoic acid] | 180 | 310 | 304 | 183 | 222 | 168 | 521 | 828 | 735 | 903 | 1012 | 1077
N[C@@H](Cc1ccc(C2(B(O)O)CC2)cc1)C(=O)O [compound 15, (2S)-2-amino-3-{4-[1-(dihydroxyboranyl)cyclopropyl]phenyl}propanoic acid] | 193 | – | 458 | 223 | 185 | 169 | 225 | 337 | 269 | 491 | 283 | 419
